Measurements: ChEMBL document CHEMBL1152186, “Design, synthesis, and evaluation of orally active inhibitors of plasminogen activator inhibitor-1 (PAI-1) production” (Bioorg Med Chem Lett, 2008)
Converted amounts (≈) assume the structure as drawn.

Columns and labels:
[1] = Solubility in water; type: physicochemical
[2] = species on record: Bos taurus; assay: Inhibition of LPS-induced PAI1 production in BCAEC at 10 uM after 24 hrs relative to T-686; type: functional
[3] = species on record: Bos taurus; assay: Inhibition of LPS-induced PAI1 production in BCAEC at 1 uM after 24 hrs relative to T-686; type: functional
[4] = Metabolic stability in dog blood after 1 hr; type: ADME, tissue-based, Canis lupus familiaris; settings: read-out: Stability
[5] = tested on: Rattus norvegicus; assay: Toxicity in rat assessed as decrease in locomotor activity at 300 mg/kg, po; type: organism-based; set-up: dose 300 mg/kg, route oral; settings: in vivo
[6] = tested on: Rattus norvegicus; assay: Antithrombotic activity in rat venous thrombosis model assessed as decrease in thrombus weight at 3 mg/kg, po administered for 3 days after 2 hrs last dose; type: functional; set-up: scale not given: the % may be the effect or the level left

Row | solubility [1] [µg/mL] | remaining at 1 h [4] [%] | Compound | Activity [2] | Activity [3] | other results
1 | 9 (≈ 0.0246 mM) | 79 | COc1cc(/C=C2/C(=O)NC(=O)/C2=C/c2ccccc2)cc(OC)c1OC | 1 | 1 | 
2 |  |  | COC(=O)C(=C(/C)c1cc(OC)cc(OC)c1)/C(=C\c1ccccc1)C(=O)N1CCN(C)CC1 |  | 0.3 | 
3 |  | 75 | COC(=O)C(=C\c1cc(OC)c(OC)c(OC)c1)/C(=C\c1ccccc1)C(N)=O | 0.7 |  | 
4 |  |  | COC(=O)C(=C/c1cc(OC)c(OC)c(OC)c1)/C(=C/c1ccccc1)C(N)=O | 0.7 |  | 
5 | 1600 (≈ 3.39 mM) | 87 | COC(=O)C(=C(/C)c1cc(OC)cc(OC)c1)/C(=C\c1ccccc1)C(=O)NCc1cccnc1 |  | 1.3 | Activity [5]: Toxic; Activity [6]: 53%
6 | > 2000 | 76 | COC(=O)C(=C(/C)c1cc(OC)cc(OC)c1)/C(=C\c1ccccc1)C(=O)NCc1ccncc1 |  | 2.1 | 
7 |  |  | COC(=O)C(=C/c1cc(OC)c(OC)c(OC)c1)/C(C(N)=O)=C(/C)c1ccccc1 | 0.2 |  | 
8 |  |  | COC(=O)C(=C(/C)c1cc(OC)cc(OC)c1)/C(=C\c1ccccc1)C(=O)Nc1nnn[nH]1 |  | 0.1 | 
9 |  |  | COC(=O)C(=C(/C)c1cc(OC)cc(OC)c1)/C(=C\c1ccccc1)C(=O)NN1CC[N+](C)([O-])CC1 |  | 0.2 | 
10 |  |  | COC(=O)C(=C(/C)c1cc(OC)cc(OC)c1)/C(=C\c1cccnc1)C(N)=O |  | 0.8 | 
11 |  |  | COC(=O)C(=C/c1cc(OC)c(OC)c(OC)c1)/C(C(N)=O)=C(\C)c1ccccc1 | 0.3 |  | 
12 |  |  | COC(=O)C(=C(/C)c1cc(OC)cc(OC)c1)/C(=C\c1ccccc1)C(=O)Nc1cccc2cccnc12 |  | 0.4 | 
13 | > 4000 | 89 | COC(=O)C(=C(/C)c1cc(OC)cc(OC)c1)/C(=C\c1ccccc1)C(=O)NN1CCN(C)CC1 |  | 1.5 | Activity [5]: Non-toxic; Activity [6]: 50%
14 |  |  | COC(=O)C(/C(=C\c1ccccc1)C(N)=O)=C(\C)c1cc(OC)c(OC)c(OC)c1 | 0.3 |  | 
15 |  |  | COC(=O)C(=C(/C)c1cc(OC)cc(OC)c1)/C(=C\c1ccccc1)C(=O)Nc1ncccn1 |  | 0.1 | 
16 | > 3000 | 87 | COC(=O)C(=C(/C)c1cc(OC)cc(OC)c1)/C(=C\c1ccccc1)C(=O)Nc1ccncc1 |  | 1.8 | Activity [5]: Toxic; Activity [6]: 58%
17 |  |  | COC(=O)C(=C(/C)c1cc(OC)cc(OC)c1)/C(=C\c1ccccc1)C(=O)O |  | 0.4 | 
18 | > 4000 | 88 | COC(=O)C(=C(/C)c1cc(OC)cc(OC)c1)/C(=C\c1ccncc1)C(N)=O |  | 1.5 | 
19 | 106 (≈ 0.258 mM) | 96 | COC(=O)C(=C(/C)c1cc(OC)c(OC)c(OC)c1)/C(=C\c1ccccc1)C(N)=O | 1 | 1.5 | 
20 | > 2000 | 83 | COC(=O)C(=C(/C)c1cc(OC)cc(OC)c1)/C(=C\c1ccccc1)C(=O)Nc1cccnc1 |  | 2.2 | 
21 |  |  | COC(=O)C(=C/c1cc(OC)c(OC)c(OC)c1)/C(=C\c1ccccc1)C(N)=O | 0.9 |  | 
22 |  |  | COC(=O)C(=C(/C)c1cc(OC)cc(OC)c1)/C(=C\c1ccccc1)C(=O)NC1CCN(C)CC1 |  | 0.8 | 
23 |  |  | COC(=O)C(=C(/C)c1cc(OC)cc(OC)c1)/C(=C\c1ccccc1)C(=O)Nn1cnnc1 |  | 0.6 | 
